Laboratory results taken from patent US6469028B1, “Synthesis and use of retinoid compounds having negative hormone and/or anatgonist activities” (Allergan, Inc., priority 1995, dated 2002).

What was measured:
[1] = test system: patients having retinal detachment resulting from PVR; conditions: 40 mg oral 13-cis retinoic acid twice daily for four weeks
[2] = test system: retinal pigment epithelium (RPE) cells; assay: Example 19: proliferation of primary retinal pigment epithelium cultures; type: cell-based, human; conditions: for RPE cell growth: single agent, 10^−12 to 10^−6M (FIG. 18)
Method: Primary cultures of human retinal pigment epithelium (RPE) were established according to the method described by Campochiaro et al. in Invest. Opthal & Vis. Sci. 32:65 (1991). 5×10^4 cells were plated in 16-mm wells of 24-well multiwell plates in DMEM (Gibco) containing 5% FBS. […] Cells were fed with fresh media containing the appropriate concentrations of these compounds every two days for a total of five days of treatment. Cells were removed from the plates by gentle digestion with trypsin and the number of cells was counted with an electronic cell counter.
AGN 193109 was tested for its ability to potentiate the anti-proliferative effect of 13-cis retinoic acid (13-cis RA) in primary RPE cultures using conditions and techniques to measure RPE cell proliferation described above. […] More particularly, 13-cis RA is useful in the treatment of several disease states, including acne (Peck et al. N. Engl. J. Med. 300:329 (1977); Jones et al. Br. J. Dermatol. 108:333 (1980)), and squamous cell carcinoma of the skin and cervix in combination treatment with interferon 2α (Lippman et al. J. Natl. Cancer Inst. 84:241 (1992); Moore et al. Seminars in Hematology 31:31 (1994)).
We next tested the ability of AGN 193109 to potentiate the activities of other nuclear receptor hormones in primary RPE cell cultures. Dexamethasone, a synthetic glucocorticoid receptor agonist, is one member of a class of compounds that have been used clinically for their potent anti-inflammatory and immunosuppressive properties. Thyroid hormone (T3; […]) is a natural thyroid hormone receptor agonist used primarily for hormone replacement therapy in the treatment of hypothyroidism.

primary RPE cells = assay: Example 27: proliferation of primary RPE cells with TR-1; type: cell-based, Human; conditions: five days of treatment
Method: Human primary RPE cells are obtained and cultured according to standard methods. The cultured cells are divided into four groups and treated as follows. Group 1 receives vehicle alone (ethanol). Group 2 is treated with 13-cis retinoic acid at concentrations ranging from 10^−11 to 10^−6 M. Group 3 is treated with the thyroid hormone inverse agonist TR-1 at concentrations ranging from 10^−11 to […]. Group 4 is co-treated with 13-cis retinoic acid at concentrations ranging from 10^−11 to 10^−6 M TR-1. Cells are refed with fresh growth medium and re-treated with the appropriate compound every two days for a total of five days of treatment. The proliferation rate over the duration of the experiment is quantitated via measurement of the cell number in the cultures using an electric cell counter.

RARα = target: T1, RARα (Homo sapiens, UniProt P10276); assay: Example 8: protease protection analysis; type: biochemical; set-up: host or cells: TNT-coupled reticulocyte lysate in vitro transcription-translation; conditions: ATRA and AGN 193109 100 nM, AGN 193583 1000 nM; trypsin 25, 50 or 100 μg/ml, 10 minutes
T1 sequence (P10276 1-462): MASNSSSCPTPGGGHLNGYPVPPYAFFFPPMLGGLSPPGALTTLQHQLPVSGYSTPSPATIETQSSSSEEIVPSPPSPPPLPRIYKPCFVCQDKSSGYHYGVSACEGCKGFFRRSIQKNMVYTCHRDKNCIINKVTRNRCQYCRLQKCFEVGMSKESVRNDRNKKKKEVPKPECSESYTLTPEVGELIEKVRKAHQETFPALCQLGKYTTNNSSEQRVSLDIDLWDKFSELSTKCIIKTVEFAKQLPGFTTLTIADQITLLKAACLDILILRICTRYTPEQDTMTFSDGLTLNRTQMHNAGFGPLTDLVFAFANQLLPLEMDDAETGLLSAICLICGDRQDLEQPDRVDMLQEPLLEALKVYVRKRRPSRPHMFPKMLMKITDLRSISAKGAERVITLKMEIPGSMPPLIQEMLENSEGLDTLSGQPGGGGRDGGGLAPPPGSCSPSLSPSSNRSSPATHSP
Method: A plasmid constructed in the vector pGEM3Z (Pharmacia) and containing the RAR-α cDNA (Giguere et al. Nature 330:624 (1987)), was used in connection with the TNT-coupled reticulocyte lysate in vitro transcription-translation system (Promega) to prepare [^35S]-methionine labeled RAR-α. Limited proteolytic digestion of the labeled protein RAR-α was carried out according to the method described by Keidel et al. in Mol. Cell. Biol. 14:287 (1994). […] After ligand binding, 1 μl of appropriately concentrated trypsin was added to the mixture to give final concentrations of 25, 50 or 100 μg/ml. Samples were incubated at room temperature for 10 minutes and trypsin digestion stopped by addition of SDS-sample buffer. Samples were subjected to polyacrylamide gel electrophoresis and autoradiographed according to standard procedures.

ER-RAR-β = assay: Example 10: repression of basal gene activity, ERE-tk-Luc, CV-1 cells; type: cell-based; conditions: 10^−9 to 10^−6 M, 18 hours, single agent
Text: (§1) More specifically, these procedures employed the ER-RAR chimeric receptor and ERE-tk-Luc reporter system. The ERE-tk-Luc plasmid includes the region −397 to −87 of the estrogen responsive 5′-flanking region of the Xenopus vitellogenin A2 gene, described by Klein-Hitpass, et al. in Cell 46:1053-1061 (1986), ligated upstream of the HSV thymidine kinase promoter and luciferase reporter gene of plasmid tk-Luc. The ER-RAR chimeric receptors consisted of the estrogen receptor DNA binding domain fused to the “D-E-F” domain of the RARs. Those having ordinary skill in the art appreciate this “D-E-F” domain functions to bind retinoid, to provide a retinoid inducible transactivation function and to provide a contact site for heterodimerization with RXR. Thus, luciferase expression in this reporter system was dependent on activation of the transfected chimeric receptor construct.
(§2) CV-1 cells were co-transfected with the ERE-tk-Luc reporter plasmid and either ER-RAR-α, ER-RAR-β or ER-RAR-γ expression plasmids. The ERE-tk-Luc plasmid contained the estrogen-responsive promoter element of the Xenopus laevis vitellogenin A2 gene and was substantially identical to the reporter plasmid described by Klein-Hitpass et al. in Cell 46:1053 (1986), except that the CAT reporter gene was substituted by a polynucleotide sequence encoding luciferase. The ER-RAR-α, ER-RARβ and ER-RAR-γ chimeric receptor-encoding polynucleotides employed in the co-transfection have been described by Graupner et al. in Biochem. Biophys. Res. Comm. 179:1554 (1991). […] Calcium phosphate transfections were carried out exactly as described in Example 6 using 0.5 μg/well of reporter plasmid and either 0.05 μg, 0.10 μg or 0.2 μg/well of receptor plasmid. […] Cell lysates and luciferase activity measurements were performed as described in Example 6.

ER-RAR-α = assay: as above; type: cell-based; conditions: 10^−9 to 10^−6 M, 18 hours, single agent
Text: as §1, §2

ER-RAR-γ = assay: as above; type: cell-based; conditions: 10^−9 to 10^−6 M, 18 hours, single agent
Text: as §1, §2

[3] = test system: cultured cervical carcinoma cells; assay: Example 23: cultured cervical carcinoma cells from a patient biopsy; type: cell-based; conditions: 10^−10 to 10^−6 M
Text: A patient presenting with an advanced cervical carcinoma is first identified. A cervical biopsy is obtained according to methods that will be familiar to one having ordinary skill in the art. Cells from the explanted tumor are propagated in tissue culture according to standard techniques to provide cell numbers sufficient to allow division into three sample groups. Culture conditions described by Agarwal et al. in Cancer Res. 54:2108 (1994) are employed for this purpose. The first group is reserved as a control and receives vehicle alone (ethanol). The second group is treated with the RAR agonist retinoic acid at a concentration of from 10^−10 to 10^−6 M. The third group is treated with AGN 193109 at doses ranging from 10^−10 to 10^−6 M. Cells are fed with fresh growth medium daily and are provided with the retinoids described above as appropriate for each sample group. Cells are counted after three days using an electric cell counter.

rabbits = assay: Example 24: rabbit model of proliferative vitreoretinopathy (PVR); type: in vivo
[4] = test system: RAR-γ-VP-16 with ER-RXR-α; conditions: no other retinoid added, 18 hours
T3R-VP-16 = assay: Example 26: thyroid hormone receptor negative hormone assay, CV-1 cells; type: cell-based; conditions: CV-1 cells with ERE-tk-Luc, ER-RXRα and T3R-VP-16
Text: CV-1 cells are co-transfected with the luciferase reporter plasmid ERE-tk-Luc and the plasmids ER-RXR-α and T3R-VP-16. T3R-VP-16 is identical to the plasmid RAR-γ-VP-16, except the RAR-γ moiety of RAR-γ-VP-16 has been substituted by the thyroid hormone receptor cDNA. As such, T3R-VP-16 expresses a fusion protein containing the activation domain of HSV VP-16 in frame with the N-terminus of the thyroid hormone receptor. Standard transfection and cell culture methods are employed for this purpose. After transfection, cells are rinsed and fed with growth medium containing 10% fetal calf serum which has been extracted with activated charcoal. Cells are treated with vehicle alone (ethanol), thyroid hormone (10^−9 to 10^−10 M), or compound TR-1 (10^−9 to 10^−6 M). […] Further, TR-1 is capable of antagonizing thyroid hormone mediated transactivation and as such is a thyroid receptor antagonist.

SMILES	incidence of retinal redetachment [1]	effectiveness compared with ATRA ([2]; 13-cis RA 10^−12 to 10^−6M)	RPE cell growth [2]	cellular proliferation, single agent (primary RPE cells)	pattern of trypsin sensitivity of labeled RAR-α after prebinding (RARα)	luciferase reporter activity (ER-RAR-β)	luciferase reporter activity (ER-RAR-α)	luciferase reporter activity (ER-RAR-γ)	cell number after three days [3]	frequency and severity of tractional retinal detachment (rabbits; retinoic acid 100 μg intravitreal, single agent)	RPE cell proliferation ([2]; single-agent treatment (FIG. 19): dexamethasone 10^−11 to 10^−6M, ATRA 10^−12 to 10^−6M)	luciferase activity of triple transfectants [4]	luciferase activity (T3R-VP-16)	retinal detachment compared with control rabbits (rabbits; second study, single agent 100 μg intravitreal)	RPE cell proliferation ([2]; thyroid hormone alone, 10^−11 to 10^−6M)
CC1=C(/C=C/C(C)=C/C=C/C(C)=C\C(=O)O)C(C)(C)CCC1 [13-cis RA, 13-cis retinoic acid, reference compound]	significantly reduced incidence of retinal redetachment	approximately two orders of magnitude less effective	effectively inhibited RPE cell growth	dose dependent decrease in cell number	–	–	–	–	–	–	–	–	–	–	–
CC1=C(/C=C/C(C)=C/C=C/C(C)=C/C(=O)O)C(C)(C)CCC1 [ATRA, all-trans-retinoic acid, reference compound]	–	–	effectively inhibited RPE cell growth	–	two major protease resistant species	strongly induced luciferase expression	strongly induced luciferase expression	strongly induced luciferase expression	does not substantially inhibit the growth rate	significantly reduced frequency and severity of retinal detachment	substantially unable to inhibit RPE cell proliferation	modest increase of luciferase activity over the high basal level	–	–	–
N[C@@H](Cc1cc(I)c(Oc2ccc(O)c(I)c2)c(I)c1)C(=O)O [thyroid hormone, 3,3′,5-triiodothyronine, reference compound]	–	–	–	–	–	–	–	–	–	–	–	–	slight increase of luciferase activity in a dose dependent manner	does not inhibit retinal detachment	refractory to single-agent treatment
